# Laboratory results published in EP0672658B1, “Antithrombotic agents” (priority 1994, dated 1995).
# Where a name gives a salt, the structure may show the parent alone.
# Assays:
# [1] = system: human or animal plasma; test: Anticoagulation determination in plasma: prothrombin time (PT); type: biochemical; settings: concentration doubling prothrombin time
# Method: (§1) Dog plasma and rat plasma is obtained from conscious mixed-breed hounds (either sex, Hazelton-LRE, Kalamazoo, Michigan, U.S.A.) or from anesthetized male Sprague-Dawley rats (Harlan Sprague-Dawley, Inc., Indianapolis, Indiana, U.S.A.) by venipuncture into 3.8 percent citrate. Fibrinogen is prepared from in-date ACD human blood as the fraction I-2 according to previous procedures and specifications. Smith, Biochem. J., 185, 1-11 (1980); and Smith, et al., Biochemistry, 11, 2958-2967 (1972). Human fibrinogen is also purchased as 98 percent pure/plasmin free from American Diagnostica, Greenwich, Connecticut. Coagulation reagents ACTIN, Thromboplastin, and Human plasma are from Baxter Healthcare Corp., Dade Division, Miami, Florida. Bovine thrombin from Parke-Davis (Ann Detroit, Michigan) is used for coagulation assays in plasma.
# (§2) Coagulation assay procedures are as previously described. Smith, et al., Thrombosis Research, 50, 163-174 (1988). A CoAScreener coagulation instrument (American LABor, Inc.) is used for all coagulation assay measurements. The prothrombin time (PT) is measured by adding 0.05 mL saline and 0.05 mL Thromboplastin-C reagent to 0.05 mL test plasma. The activated partial thromboplastin time (APTT) is measured by incubation of 0.05 mL test plasma with 0.05 mL Actin reagent for 120 seconds followed by 0.05 mL CaCl2 (0.02 M). The thrombin time (TT) is measured by adding 0.05 mL saline and 0.05 mL thrombin (10 NIH units/mL) to 0.05 mL test plasma. The compounds of Formula I are added to human or animal plasma over a wide range of concentrations to determine prolongation effects on the APTT, PT, and TT assays. Linear extrapolations are performed to estimate the concentrations required to double the clotting time for each assay.
# [2] = system: human or animal plasma; test: Anticoagulation determination in plasma: activated partial thromboplastin time (APTT); type: biochemical; settings: concentration doubling activated partial thromboplastin time
# Method: as §1, §2
# [3] = biological target: Human Thrombin (Homo sapiens, UniProt P00734); test: biochemical; settings: read-out: Kass Human Thrombin (converted)
# [4] = system: human or animal plasma; test: Anticoagulation determination in plasma: thrombin time (TT); type: biochemical; settings: concentration doubling thrombin time
# Method: as §1, §2
# [5] = biological target: T1, Trypsin (Bos taurus, UniProt P00760); test: biochemical; parameters: species or system Bovine; settings: read-out: Kass Trypsin (converted)
# T1 sequence (P00760 24-246): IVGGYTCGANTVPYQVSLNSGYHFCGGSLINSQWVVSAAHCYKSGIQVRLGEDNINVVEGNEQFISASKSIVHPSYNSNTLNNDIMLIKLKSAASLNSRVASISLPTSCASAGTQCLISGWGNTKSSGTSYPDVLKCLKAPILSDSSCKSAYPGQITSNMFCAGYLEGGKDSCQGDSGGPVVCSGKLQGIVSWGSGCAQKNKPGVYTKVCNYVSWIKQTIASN
# Method: (§3) By substantially following the procedures described above for human thrombin, and using other human blood coagulation system serine proteases and proteases of the fibrinolytic system with the appropriate chromogenic substrates, identified below, selectivity of the compounds of the present invention with respect to the coagulation factor serine proteases and with respect to the fibrinolytic system serine proteases are evaluated as well as their substantial lack of interference with serine proteases of the fibrinolytic system. Thrombin inhibitors preferably should spare fibrinolysis induced by urokinase, tissue plasminogen activator (t-PA) and streptokinase. This would be important to the therapeutic use of such agents as an adjunct to streptokinase, t-PA or urokinase thrombolytic therapy and to the use of such agents as an endogenous fibrinolysis-sparing (with respect to t-PA and urokinase) antithrombotic agent. In addition to the lack of interference with the amidase activity of the fibrinolytic proteases, such fibrinolytic system sparing can be studied by the use of human plasma clots and their lysis by the respective fibrinolytic plasminogen activators.
# (§4) Human factors X, Xa, IXa, XIa, and XIIa are purchased from Enzyme Research Laboratories, South Bend, Indiana; human urokinase from Leo Pharmaceuticals, Denmark; and recombinant activated Protein C (aPC) is prepared at Eli Lilly and Co. substantially according to U.S. Patent 4,981,952. Chromogenic substrates: N-Benzoyl-Ile-Glu-Gly-Arg-p-nitroanilide (for factor Xa); N-Cbz-D-Arg-Gly-Arg-p-nitroanilide (for factor IXa assay as the factor Xa substrate); Pyroglutamyl-Pro-Arg-p-nitroanilide (for Factor XIa and for aPC); H-D-Pro-Phe-Arg-p-nitroanilide (for factor XIIa); and Pyroglutamyl-Gly-Arg-p-nitroanilide (for urokinase); are purchased from KabiVitrum, Stockholm, Sweden, or from Midwest Biotech, Fishers, Indiana. Bovine trypsin is purchased from Worthington Biochemicals, Freehold, New Jersey, and human plasma kallikrein from Kabi Vitrum, Stockholm, Sweden. Chromogenic substrate H-D-Pro-Phe-Arg-p-nitroanilide for plasma kallikrein is purchased from Kabi Vitrum, Stockholm, Sweden. N-Benzoyl-Phe-Val-Arg-p-nitroanilide, the substrate for human thrombin and for trypsin, is synthesized according to procedures described above for the compounds of the present invention, using known methods of peptide coupling from commercially available reactants or purchased from Midwest Biotech, Fishers, Indiana.
# [6] = biological target: factor Xa (Homo sapiens, UniProt P00742); test: biochemical; settings: read-out: Kass Xa (converted)
# Method: as §3, §4
# Chain of factor Xa (P00742 235-488 limits assumed): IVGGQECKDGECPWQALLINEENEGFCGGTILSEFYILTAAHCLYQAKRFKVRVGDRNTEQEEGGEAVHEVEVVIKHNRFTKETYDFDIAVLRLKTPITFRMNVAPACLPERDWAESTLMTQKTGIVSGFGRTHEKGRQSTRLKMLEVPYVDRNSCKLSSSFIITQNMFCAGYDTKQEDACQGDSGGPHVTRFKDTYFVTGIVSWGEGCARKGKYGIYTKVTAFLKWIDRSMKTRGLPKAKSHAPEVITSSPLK
# Chain of factor Xa (P00742 41-179 partner limits assumed): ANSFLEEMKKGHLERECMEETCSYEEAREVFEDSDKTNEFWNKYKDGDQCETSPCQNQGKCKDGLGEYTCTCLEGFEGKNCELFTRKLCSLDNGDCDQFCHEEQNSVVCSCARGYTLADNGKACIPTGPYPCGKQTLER
Kd [3],Kd [5],Kd [6],Compound,Human Plasma Anticoagulation 2x Clotting time (ng/mL) PT [1],Human Plasma Anticoagulation 2x Clotting time (ng/mL) APTT [2],Human Plasma Anticoagulation 2x Clotting time (ng/mL) TT [4]
417 nM,33300 nM,–,"CCS(=O)(=O)N[C@H](CC1CCCCC1)C(=O)N1CCC[C@H]1C(=O)NCc1ccnc(N)c1 [Example 83, EtSO2-D-Cha-Pro-4-NHCH2-2-aminopyridine·HCl]","1,300 ng/mL","1,000 ng/mL",91 ng/mL
345 nM,14300 nM,–,"CCS(=O)(=O)N[C@H](CC1CCCCC1)C(=O)N1CCC[C@H]1C(=O)NCc1ccc(N)nc1 [Example 84, EtSO2-D-Cha-Pro-5-NHCH2-2-aminopyridine·HCl]","1,900 ng/mL","1,500 ng/mL",110 ng/mL
3.77 nM,32.5 nM,–,"N=C(N)c1ccc(CNC(=O)[C@@H]2CCCN2C(=O)[C@@H](CC2CCCCC2)NCCCC(=O)O)cc1 [Example 85, HOOCCH2CH2CH2-D-Cha-Pro-p-NHCH2C6H4C(NH)NH2·HCl]",197 ng/mL,100 ng/mL,4.9 ng/mL
5 nM,–,1590 nM,"N=C(N)c1ccc(CNC(=O)[C@@H]2CCCN2C(=O)[C@H](NCC(=O)O)C2CCCCC2)cc1 [Example 86, HOOCCH2-D-Chg-Pro-p-NHCH2C6H4C(NH)NH2·HCl]",180 ng/mL,81 ng/mL,4 ng/mL
33.3 nM,–,400 nM,"N=C(N)c1ccc(CNC(=O)[C@@H]2CCCN2C(=O)[C@@H](CCc2ccccc2)NCC(=O)O)cc1 [Example 87, HOOCCH2-D-hPhe-Pro-p-NHCH2C6H4C(NH)NH2·HCl]",310 ng/mL,260 ng/mL,9 ng/mL
2.44 nM,–,256 nM,"N=C(N)c1ccc(CNC(=O)[C@@H]2CCCN2C(=O)[C@@H](CCC2CCCCC2)NCC(=O)O)cc1 [Example 88, HOOCCH2-D-hCha-Pro-p-NHCH2C6H4C(NH)NH2·HCl]",200 ng/mL,100 ng/mL,4 ng/mL
7140 nM,–,14100 nM,"N=C(N)c1ccc(CNC(=O)CN(CCc2ccccc2)C(=O)CNCC(=O)O)cc1 [Example 89, HOOCCH2-Gly-N-C6H5CH2CH2Gly-p-NHCH2C6H4C(NH)NH2·HCl]","37,000 ng/mL","51,000 ng/mL",570 ng/mL
1640 nM,–,500000 nM,"CCC(CC)C(=O)N[C@@H](CCC(=O)O)C(=O)N1CCC[C@H]1C(=O)NCc1ccc(C(=N)N)cc1 [Example 90, (C2H5)2CHCO-Glu-Pro-p-NHCH2C6H4C(NH)NH2·HCl]","14,600 ng/mL","14,500 ng/mL",330 ng/mL
278 nM,–,143000 nM,"CCC(CC)C(=O)N[C@@H](CCS(C)(=O)=O)C(=O)N1CCC[C@H]1C(=O)NCc1ccc(C(=N)N)cc1 [Example 91, (C2H5)2CHCO-Met(O2)-Pro-p-NHCH2C6H4C(NH)NH2·HCl]","3,500 ng/mL","3,000 ng/mL",63 ng/mL
7.69 nM,130 nM,–,"CS(=O)(=O)CC(=O)N[C@H](CC1CCCCC1)C(=O)N1CCC[C@H]1C(=O)NCc1ccc(C(=N)N)cc1 [Example 92, MeSO2CH2CO-D-Cha-Pro-p-NHCH2C6H4C(NH)NH2·HCl]",340 ng/mL,210 ng/mL,8.9 ng/mL
